The nature of this series: method code SF-HPLC, from DOI: 10.1002/jps.2600740210, PMID: 3989684. To be noted: pH 7.7.

In the SangsterLogP compilation one finds logD data, which are given here for ten molecules.

Usually logD stands for lipophilicity at a set pH, counting ionised and neutral species. A lower logD goes with lower lipophilicity.

As to `NS(=O)(=O)c1nc2ccc([N+](=O)[O-])cc2s1`, the logD was 0.9.

Turning to `Nc1ccc2nc(S(N)(=O)=O)sc2c1`, the logD was 0.38.

For `NS(=O)(=O)c1nc2ccc(Cl)cc2s1`, the logD was determined as 1.86.

`NS(=O)(=O)c1nc2c(Cl)cc(Cl)cc2s1` gave a logD of 2.3.

Turning to `CC(=O)Nc1ccc2nc(S(N)(=O)=O)sc2c1`, the logD was 0.68.

`NS(=O)(=O)c1nc2ccc(OCCO)cc2s1` came in with a logD of 0.38.

In the case of `NS(=O)(=O)c1nc2ccc(OCc3ccccc3)cc2s1`, the logD stood at 3.06.

As to `NS(=O)(=O)c1nc2ccc(O)cc2s1`, the logD was found to be 0.92.

`CCOc1ccc2nc(S(N)(=O)=O)sc2c1` displayed a logD of 1.91.

Regarding `NS(=O)(=O)c1nc2ccccc2s1`, the logD was 1.19.
